This is an account of results in paper PMC9697799, “(E)-N-(3-(1-(2-(4-(2,2,2-Trifluoroacetamido)benzoyl)hydrazono)ethyl)phenyl)nicotinamide: A Novel Pyridine Derivative for Inhibiting Vascular Endothelial Growth Factor Receptor-2: Synthesis, Computational, and Anticancer Studies” (Molecules, 2022).

The assay deals with T1, VEGFR-2 (Homo sapiens, UniProt P35968).
T1 construct: gene KDR
Briefly: in vitro VEGFR-2 inhibition, Human VEGFR-2 ELISA kit. The format is biochemical. Background: ELISA stands for enzyme-linked immunosorbent assay.

T1 sequence (P35968 20-1356): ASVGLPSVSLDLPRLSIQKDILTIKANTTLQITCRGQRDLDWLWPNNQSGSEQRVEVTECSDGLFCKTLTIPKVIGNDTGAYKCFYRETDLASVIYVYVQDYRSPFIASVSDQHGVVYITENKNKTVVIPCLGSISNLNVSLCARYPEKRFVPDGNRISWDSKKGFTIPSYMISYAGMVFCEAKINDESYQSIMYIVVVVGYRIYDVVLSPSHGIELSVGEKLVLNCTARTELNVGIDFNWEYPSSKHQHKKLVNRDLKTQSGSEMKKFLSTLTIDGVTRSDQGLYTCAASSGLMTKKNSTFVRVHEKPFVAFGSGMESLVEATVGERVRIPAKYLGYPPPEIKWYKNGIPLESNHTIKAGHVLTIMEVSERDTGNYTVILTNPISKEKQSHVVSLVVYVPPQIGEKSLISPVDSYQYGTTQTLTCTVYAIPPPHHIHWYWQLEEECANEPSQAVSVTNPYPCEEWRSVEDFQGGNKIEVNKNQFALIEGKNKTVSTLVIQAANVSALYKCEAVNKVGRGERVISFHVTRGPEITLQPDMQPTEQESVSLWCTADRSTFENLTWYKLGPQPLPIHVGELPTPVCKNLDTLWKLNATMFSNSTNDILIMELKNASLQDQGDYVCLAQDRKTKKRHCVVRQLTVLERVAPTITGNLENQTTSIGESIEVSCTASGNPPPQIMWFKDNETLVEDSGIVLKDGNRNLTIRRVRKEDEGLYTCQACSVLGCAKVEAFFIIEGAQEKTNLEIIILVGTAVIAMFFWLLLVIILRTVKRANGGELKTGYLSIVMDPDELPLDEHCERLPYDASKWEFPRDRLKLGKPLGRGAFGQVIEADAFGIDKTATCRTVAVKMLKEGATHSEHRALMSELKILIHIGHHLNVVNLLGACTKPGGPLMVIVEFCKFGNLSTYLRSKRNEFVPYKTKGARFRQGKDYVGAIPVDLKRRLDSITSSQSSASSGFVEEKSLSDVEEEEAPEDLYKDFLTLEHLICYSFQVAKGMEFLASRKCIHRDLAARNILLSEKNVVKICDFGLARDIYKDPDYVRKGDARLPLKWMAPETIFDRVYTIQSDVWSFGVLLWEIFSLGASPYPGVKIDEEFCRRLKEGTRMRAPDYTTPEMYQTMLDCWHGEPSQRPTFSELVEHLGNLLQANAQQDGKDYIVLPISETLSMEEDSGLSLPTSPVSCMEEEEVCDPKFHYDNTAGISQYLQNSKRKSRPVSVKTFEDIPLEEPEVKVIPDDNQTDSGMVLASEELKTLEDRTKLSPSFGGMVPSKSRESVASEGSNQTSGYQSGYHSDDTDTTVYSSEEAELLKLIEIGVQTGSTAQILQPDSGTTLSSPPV

The IC50 is the concentration at which inhibition is half-maximal. Low values mean inhibition by little substance, high ones a need for much substance. In turn, `C/C(=N\NC(=O)c1ccc(NC(=O)C(F)(F)F)cc1)c1cccc(NC(=O)c2cccnc2)c1` [compound 10, (E)-N-(3-(1-(2-(4-(2,2,2-Trifluoroacetamido)benzoyl)hydrazono)ethyl)phenyl)nicotinamide] returned an IC50 of 65.8 nM.
